Laboratory results published in patent publication EP0528172A1, “(2-Alkyl-3-pyridyl)methylpiperazine derivatives as PAF antagonists” (J. URIACH & CIA. S.A., priority 1991, dated 1993).
Read-outs that look alike come from different tables or passages of the source.

How the values were obtained:
[1] = system: platelet aggregation induced by PAF; assay: Inhibition of platelet aggregation induced by PAF (platelet rich plasma, Born nephelometric technique); format: cell-based, New Zealand albino rabbits; details: rabbit platelet rich plasma, PAF C₁₈ 16 nM final, concentration needed to inhibit platelet aggregation in a 50%, read-out: IC₅₀
Procedure: Inhibition of platelet aggregation induced by PAF.
The blood is obtained by cardiac puncture of male New Zealand albino rabbits (between 2 and 2.5 Kg of weight) and coagulation is prevented by adding 1 part of 3.16% sodium citrate dihydrate in 9 parts of blood. The platelet rich plasma (PRP) is prepared by blood centrifugation at 250xg for 10 min. at 4°C and it is diluted with platelet poor plasma (PPP) obtained by additional centrifugation at 3000xg for 10 min. The amount of platelets is adjusted to […]. The platelet aggregation induced by PAF (C₁₈, prepared in our laboratory) (16 nM, final) is determined by the Born nephelometric technique (J. Physiol., 1962, 162, 67) using an aggregometer Chrono-log 500. The activities of the inhibitors are expressed as IC₅₀ values, that is to say the concentration of the drug needed to inhibit the platelet aggregation in a 50%.

[2] = system: hypotension induced by PAF; assay: Inhibition of the hypotensive effect induced by PAF in normotense rats; format: in vivo, Sprage Dawley rats; details: for ED50: Rattus norvegicus, iv, read-out: ID₅₀
Procedure: Inhibition of the hypotensive effect induced by PAF in normotense rats.
Male Sprage Dawley rats, of 180-220 g of weight, anesthetized with sodium pentobarbital (50 mg/Kg, i.p. 1 mL/100 g) have been used. In order to measure the average arterial pressure, a polyethylene catheter is introduced into the carotid artery. The arterial pressure is recorded with the help of a transducer connected with a R611 Beckman polygraph. The tested compounds are administered through the femoral vein 3 min. before the injection of PAF (0.5 mcg/Kg, i.v.) . The inhibition of the hypotension induced by PAF of the different compounds is expressed as ID₅₀, that is to say, the amount of compound by weight of animal (dose) needed to inhibit the hypotension induced by PAF in a 50%.

mortality induced by PAF = assay: Mortality induced by PAF in mice (p.o.); format: in vivo, Swiss mice; details: Mus musculus, oral administration 1 h before 100 mcg/kg PAF-C₁₈ + 1 mg/kg propanolol i.v., examined 2 h after PAF, dose inhibiting mortality in a 50%, read-out: ID₅₀
Procedure: Mortality induced by PAF in mice (p.o.).
This test was performed according to the procedure described by Young et al. (Prostaglandins, 1985, 30, 545-551). Groups of 10 Swiss mice weighing from 22 to 26 g were used. 100 mcg/kg of PAF-C₁₈ and 1 mg/kg of propanolol were administered through a lateral tail vein 1 h after the oral administration of the compounds to be tested (20 mL/kg). Animals were examined 2 h after the injection of PAF. The percentage of the inhibition of the mortality induced by PAF was determined for all the tested compounds in comparison with the control group. The results are expressed as ID₅₀ values, that is to say, the amount of compound by weight of animal (dose) needed to inhibit the mortality induced by PAF in a 50%.

[3] = anesthetized male rats, compound via femoral vein 3 min before PAF (0.5 mcg/Kg, i.v.), dose inhibiting PAF hypotension in a 50%

| IC50 [1] | Structure (SMILES) | IC50 ([1]; Oryctolagus cuniculus) | ED50 [2, 3] | ED50 (mortality induced by PAF) | ED50 [2] | ID₅₀ [2, 3] |
| --- | --- | --- | --- | --- | --- | --- |
|  | Cc1ncccc1C(C#N)N1CCN(C(=O)CC(c2ccccc2)c2ccccc2)CC1.Cl.Cl (stereo not drawn) [Compound 1, 1-(3,3-Diphenylpropionyl)-4-[(2-methyl-3-pyridyl)cyanomethyl]piperazine, dihydrochloride] | 18 nM | 0.015 mg/kg |  |  |  |
|  | Cc1ncccc1C(C#N)N1CCN(C(=O)CC(O)(c2ccccc2)c2ccccc2)CC1 (stereo not drawn) [Compound 4, 1-(3,3-Diphenyl-3-hydroxypropionyl)-4-[(2-methyl-3-pyridyl)cyanomethyl]piperazine] | 17 nM | 0.039 mg/kg | 0.69 mg/kg |  |  |
|  | Cc1ncccc1C(C#N)N1CCN(C(=O)C=C(c2ccccc2)c2ccccc2)CC1 (stereo not drawn) [Compound 5, 1-(3,3-Diphenylpropenoyl)-4-[(2-methyl-3-pyridyl)cyanomethyl]piperazine] | 26 nM | 0.038 mg/kg |  |  |  |
|  | Cc1ncccc1C(C#N)N1CCN(C(=O)CC(C)(O)c2ccccc2)CC1 (stereo not drawn) [Compound 9, 1-(3-Phenyl-3-hydroxybutanoyl)-4-[(2-methyl-3-pyridyl)cyanomethyl]piperazine] | 36 nM |  |  |  |  |
|  | Cc1ncccc1C(C#N)N1CCN(C(=O)CC(O)(c2ccccc2)C(F)(F)F)CC1 (stereo not drawn) [Compound 11, 1-(3-Phenyl-3-hydroxy-3-(trifluoromethyl)propionyl)-4-[(2-methyl-3-pyridyl)cyanomethyl]piperazine] | 14 nM | 0.013 mg/kg | 0.44 mg/kg |  |  |
|  | Cc1ncccc1C(C#N)N1CCN(C(=O)CC(NCc2ccccc2)c2ccccc2)CC1 (stereo not drawn) [Compound 15, 1-[3-(N-Benzylamino)-3-phenylpropionyl]-4-[(2-methyl-3-pyridyl)cyanomethyl]piperazine] | 9.1 nM | 0.035 mg/kg | 1.2 mg/kg |  |  |
|  | Cc1ncccc1C(C#N)N1CCN(C(=O)CC(NC(=O)c2ccccc2)c2ccccc2)CC1 (stereo not drawn) [Compound 16, 1-[3-(N-Benzoylamino)-3-phenylpropionyl]-4-[(2-methyl-3-pyridyl)cyanomethyl]piperazine] | 9.1 nM | 0.056 mg/kg |  |  |  |
|  | CC(=O)NC(CC(=O)N1CCN(C(C#N)c2cccnc2C)CC1)c1ccccc1 (stereo not drawn) [Compound 17, 1-[3-(N-acetylamino)-3-phenylpropionyl]-4-[(2-methyl-3-pyridyl)cyanomethyl]piperazine] | 38 nM | 0.035 mg/kg | 0.09 mg/kg |  |  |
|  | Cc1ncccc1C(C#N)N1CCN(C(=O)CCC(c2ccccc2)c2ccccc2)CC1 (stereo not drawn) [Compound 18, 1-(4,4-Diphenylbutanoyl)-4-[(2-methyl-3-pyridyl)cyanomethyl]piperazine] | 80 nM | 0.028 mg/kg |  |  |  |
|  | Cc1ncccc1C(C#N)N1CCN(C(=O)CNC(c2ccccc2)c2ccccc2)CC1 (stereo not drawn) [Compound 22, 1-[N-(Diphenylmethyl)aminoacetyl]-4-[(2-methyl-3-pyridyl)cyanomethyl]piperazine] | 85 nM | 0.021 mg/kg | 0.3 mg/kg |  |  |
|  | Cc1ncccc1C(C#N)N1CCN(C(=O)[C@H](C)NC(c2ccccc2)c2ccccc2)CC1 (stereo partly drawn) [Compound 28, 1-[(S)-2-(N-(Diphenylmethyl)amino)propionyl]-4-[(2-methyl-3-pyridyl)cyanomethyl]piperazine] | 13 nM | 0.025 mg/kg | 1.6 mg/kg |  |  |
|  | Cc1ncccc1C(C#N)N1CCN(C(=O)CCNC(c2ccccc2)c2ccccc2)CC1 (stereo not drawn) [Compound 34, 1-[3-(N-(Diphenylmethyl)amino)propionyl]-4-[(2-methyl-3-pyridyl)cyanomethyl]piperazine] | 110 nM | 0.044 mg/kg | 0.62 mg/kg |  |  |
|  | Cc1ncccc1C(C#N)N1CCN(C(=O)COC(c2ccccc2)c2ccccc2)CC1 (stereo not drawn) [Compound 36, 1-[(Diphenylmethoxy)acetyl]-4-[(2-methyl-3-pyridyl)cyanomethyl]piperazine] | 42 nM | 0.048 mg/kg |  |  |  |
|  | COC(=O)NC(CC(=O)N1CCN(C(C#N)c2cccnc2C)CC1)c1ccccc1 (stereo not drawn) [Compound 41, 1-[3-(N-(Methoxycarbonyl)amino)-3-phenylpropionyl]-4-[(2-methyl-3-pyridyl)cyanomethyl]piperazine] | 41 nM | 0.015 mg/kg | 0.044 mg/kg |  |  |
|  | CCOC(=O)NC(CC(=O)N1CCN(C(C#N)c2cccnc2C)CC1)c1ccccc1 (stereo not drawn) [Compound 42, 1-[3-(N-(Ethoxycarbonyl)amino)-3-phenylpropionyl]-4-[(2-methyl-3-pyridyl)cyanomethyl]piperazine] | 14 nM | 0.025 mg/kg | 0.23 mg/kg |  |  |
|  | Cc1ncccc1C(C#N)N1CCN(C(=O)CC(NC(=O)Oc2ccccc2)c2ccccc2)CC1 (stereo not drawn) [Compound 44, 1-[3-(N-(Phenoxycarbonyl)amino)-3-phenylpropionyl]-4-[(2-methyl-3-pyridyl)cyanomethyl]piperazine] | 16 nM |  |  | 0.036 mg/kg |  |
|  | Cc1ncccc1C(C#N)N1CCN(C(=O)CC(NC(=O)c2cccnc2)c2ccccc2)CC1 (stereo not drawn) [Compound 60, 1-[3-(N-(3-pyridylcarbonyl)amino)-3-phenylpropionyl]-4-[(2-methyl-3-pyridyl)cyanomethyl]piperazine] | 8.9 nM | 0.029 mg/kg | 0.41 mg/kg |  |  |
|  | Cc1ncccc1C(C#N)N1CCN(C(=O)CC(c2ccccc2)N2CCCC2=O)CC1 (stereo not drawn) [Compound 66, 1-[3-(2-oxo-1-pyrrolidinyl)-3-phenylpropionyl]-4-[(2-methyl-3-pyridyl)cyanomethyl]piperazine] | 29 nM | 0.026 mg/kg | 0.13 mg/kg |  |  |
|  | Cc1ncccc1C(C#N)N1CCN(C(=O)CC(c2ccccc2)N2CCOC2=O)CC1 (stereo not drawn) [Compound 68, 1-[3-(2-oxo-3-oxazolidinyl)-3-phenylpropionyl]-4-[(2-methyl-3-pyridyl)cyanomethyl]piperazine] | 63 nM | 0.029 mg/kg | 0.3 to 1 mg/kg |  |  |
|  | Cc1ncccc1C(C#N)N1CCN(C(=O)CC(Nc2ccccc2)c2ccccc2)CC1 (stereo not drawn) [Compound 74, 1-[3-(N-phenylamino)-3-phenylpropionyl]-4-[(2-methyl-3-pyridyl)cyanomethyl]piperazine] | 28 nM | 0.042 mg/kg | 0.27 mg/kg |  |  |
|  | CC(=O)N(O)C(CC(=O)N1CCN(C(C#N)c2cccnc2C)CC1)c1ccccc1 (stereo not drawn) [Compound 75, 1-[3-(N-acetyl-N-hydroxyamino)-3-phenylpropionyl]-4-[(2-methyl-3-pyridyl)cyanomethyl]piperazine] | 62 nM | 0.027 mg/kg | 0.061 mg/kg |  |  |
|  | Cc1ncccc1C(C#N)N1CCN(C(=O)CC(c2ccccc2)N(O)C(N)=O)CC1 (stereo not drawn) [Compound 76, 1-[3-(N-carbamoyl-N-hydroxyamino)-3-phenylpropionyl]-4-[(2-methyl-3-pyridyl)cyanomethyl]piperazine] | 69 nM |  |  |  |  |
|  | CNC(=O)N(O)C(CC(=O)N1CCN(C(C#N)c2cccnc2C)CC1)c1ccccc1 (stereo not drawn) [Compound 77, 1-[3-(N-methylcarbamoyl-N-hydroxyamino)-3-phenylpropionyl]-4-[(2-methyl-3-pyridyl)cyanomethyl]piperazine] | 3000 nM | 0.045 mg/kg |  |  |  |
| 82 nM | Cc1ncccc1C(C#N)N1CCN(C(=O)CC(NC(=O)N(C)O)c2ccccc2)CC1 (stereo not drawn) [Compound 78, 1-[3-(N-(N'-hydroxy-N'-methylcarbamoyl)amino)-3-phenylpropionyl]-4-[(2-methyl-3-pyridyl)cyanomethyl]piperazine] |  |  |  |  | 0.055 mg/Kg i.v. |
